Tested on: Bcl2 transcript in SiHa cells
Assay: Bcl2 transcript expression by RT-PCR after delivery of Bcl2 antisense oligonucleotide into SiHa cells
Format: cell-based, human
Conditions: Bcl2 antisense oligonucleotide 100 nM, 24 hours, FIG. 8
Protocol: On the day prior to the experiment, SiHa cells were seeded on 24-well plates at a density of 8×10^4 cells/well. […] The antisense oligonucleotide to induce the inhibition of expression of the Bcl2 gene (Genbank accession number: […] These materials were slowly pipetted, mixed and allowed to stand at room temperature for 20 min, thus resulting in formation of complexes. The thus-prepared complexes were added to the well plates, followed by cell culture in a CO2 incubator at 37° C. for 24 hours. After 24 hours, total RNA was isolated from the cultured cells using a Trizol reagent (Invitrogen, Carlsbad, Calif., USA) and then reverse-transcribed into cDNA using AccuPower RT PreMix (Bioneer, Daejeon, Korea). […] An expression level of the Bcl2 transcript was assayed by determining quantitative changes of the gene expression through normalization of a band density of the Bcl2-specific PCR product against a band density occurring by amplification of the GAPDH (glyceraldehyde-3-phosphate dehydrogenase) gene.

antisense oligonucleotide-alone: Bcl2 antisense oligonucleotide 5'-TCT CCC AGC GTG CGC CAT-3' (Bioneer), given without delivery system (antisense TCTCCCAGCGTGCGCCAT; chemistry not given here)
amount of the Bcl2 transcript (RT-PCR, normalized against GAPDH): no changes in an amount of the Bcl2 transcript

— patent publication US20120021044A1, “Novel Cationic Lipid, A Preparation Method of the Same and A Delivery System Comprising the Same” (SNU R&DB FOUNDATION, priority 2007, published 2012)
